# Measurements published in patent US20230234943A1, “TREX1 INHIBITORS AND USES THEREOF” (Tempest Therapeutics, Inc., priority 2020, published 2023).
# pIC50: −log10 of the molar value.
# Biological target: T1, Human TREX1 enzyme (amino acids 1-242) (Homo sapiens, UniProt Q9NSU2)
# T1 construct: Human TREX1 enzyme (amino acids 1-242)
# T1 sequence (Q9NSU2 1-242): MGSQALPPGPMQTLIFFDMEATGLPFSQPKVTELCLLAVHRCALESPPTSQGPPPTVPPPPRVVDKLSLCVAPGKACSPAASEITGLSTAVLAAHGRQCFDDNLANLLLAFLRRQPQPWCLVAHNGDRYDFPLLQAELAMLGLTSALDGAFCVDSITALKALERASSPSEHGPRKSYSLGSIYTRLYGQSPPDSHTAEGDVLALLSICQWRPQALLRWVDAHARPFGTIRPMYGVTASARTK
# Assay: Human TREX1 enzymatic assay with dsDNA native oligonucleotide (Picogreen fluorescence)
# Format: biochemical
# Details: 2 mM dithiothreitol in assay buffer; 50 nM dsDNA oligonucleotide; 30 min preincubation at 25° C.; read-out: TREX1/Human + DTT IC50 AVG
# In short: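 Remaining dsDNA quantified by Picogreen fluorescence after EDTA quench, with no-enzyme and DMSO wells as controls. Reactions used 50 nM annealed oligonucleotide for 5–15 min at 25 °C, after a 30 min compound–enzyme preincubation (0.8–0.16 nM TREX1; 2% DMSO; pH 7.7 Tris, 5 mM MgCl2).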
row,SMILES,pIC50
1,"COc1cc(-c2nc3ccc(C(=O)Nc4cccnc4)cc3n2C2(C)COC2)c(F)c(O)c1O [Example 250, 2-(2-fluoro-3,4-dihydroxy-5-methoxyphenyl)-1-(3-methyloxetan-3-yl)-N-(pyridin-3-yl)-1H-1,3-benzodiazole-6-carboxamide]",≥ 7.00
2,"COc1cc(-c2nc3ccc(C(=O)NCC(F)F)cc3n2C2(C)COC2)c(F)c(O)c1O [Example 251, N-(2,2-difluoroethyl)-2-(2-fluoro-3,4-dihydroxy-5-methoxyphenyl)-1-(3-methyloxetan-3-yl)-1H-1,3-benzodiazole-6-carboxamide]",≥ 7.00
3,"COc1cc(-c2nc3ccc(C(=O)NC(C)C)cc3n2C2(C)COC2)c(F)c(O)c1O [Example 252, 2-(2-fluoro-3,4-dihydroxy-5-methoxyphenyl)-N-isopropyl-1-(3-methyloxetan-3-yl)-1H-benzo[d]imidazole-6-carboxamide]",≥ 7.00
4,"COc1cc(-c2nc3ccc(C(=O)NC4CC4)cc3n2C2(C)COC2)c(F)c(O)c1O [Example 253, N-cyclopropyl-2-(2-fluoro-3,4-dihydroxy-5-methoxyphenyl)-1-(3-methyloxetan-3-yl)-1H-benzo[d]imidazole-6-carboxamide]",≥ 7.00
5,"COc1cc(-c2nc3ccc(C(=O)NC4COC4)cc3n2C2(C)COC2)c(F)c(O)c1O [Example 254, 2-(2-fluoro-3,4-dihydroxy-5-methoxyphenyl)-1-(3-methyloxetan-3-yl)-N-(oxetan-3-yl)-1H-benzo[d]imidazole-6-carboxamide]",≥ 7.00
6,"COc1cc(-c2nc3ccc(C(=O)NC4CCNCC4)cc3n2C2(C)COC2)c(F)c(O)c1O [Example 255, 2-(2-fluoro-3,4-dihydroxy-5-methoxyphenyl)-1-(3-methyloxetan-3-yl)-N-(piperidin-4-yl)-1H-benzo[d]imidazole-6-carboxamide]",6.00 to 7.00
7,"COc1cc(-c2nc3ccc(C(=O)NC4CCC(F)(F)CC4)cc3n2C2(C)COC2)c(F)c(O)c1O [Example 256, N-(4,4-difluorocyclohexyl)-2-(2-fluoro-3,4-dihydroxy-5-methoxyphenyl)-1-(3-methyloxetan-3-yl)-1H-benzo[d]imidazole-6-carboxamide]",≥ 7.00
8,"COc1cc(-c2nc3ccc(C(=O)NC4CCN(C)C4)cc3n2C2(C)COC2)c(F)c(O)c1O (stereo not drawn) [Example 257, 2-(2-fluoro-3,4-dihydroxy-5-methoxyphenyl)-1-(3-methyloxetan-3-yl)-N-(1-methylpyrrolidin-3-yl)-1H-benzo[d]imidazole-6-carboxamide]",6.00 to 7.00
9,"COc1cc(-c2nc3ccc(C(=O)Nc4ccon4)cc3n2C2(C)COC2)c(F)c(O)c1O [Example 258, 2-(2-fluoro-3,4-dihydroxy-5-methoxyphenyl)-1-(3-methyloxetan-3-yl)-N-(1,2-oxazol-3-yl)-1H-1,3-benzodiazole-6-carboxamide]",≥ 7.00
10,"COc1cc(-c2nc3ccc(C(=O)NC4CNC4)cc3n2C2(C)COC2)c(F)c(O)c1O [Example 259, N-(azetidin-3-yl)-2-(2-fluoro-3,4-dihydroxy-5-methoxyphenyl)-1-(3-methyloxetan-3-yl)-1H-1,3-benzodiazole-6-carboxamide]",≥ 7.00
11,"COc1cc(-c2nc3ccc(C(=O)NC4CCN(C)CC4)cc3n2C2(C)COC2)c(F)c(O)c1O [Example 260, 2-(2-fluoro-3,4-dihydroxy-5-methoxyphenyl)-1-(3-methyloxetan-3-yl)-N-(1-methylpiperidin-4-yl)-1H-1,3-benzodiazole-6-carboxamide]",6.00 to 7.00
12,"COc1cc(-c2nc3ccc(C(=O)NC4CCNC4)cc3n2C2(C)COC2)c(F)c(O)c1O (stereo not drawn) [Example 261, 2-(2-fluoro-3,4-dihydroxy-5-methoxyphenyl)-1-(3-methyloxetan-3-yl)-N-(pyrrolidin-3-yl)-1H-benzo[d]imidazole-6-carboxamide]",6.00 to 7.00
13,"CCNC(=O)c1ccc2nc(-c3cc(OC)c(O)c(O)c3F)n(C3(C)COC3)c2c1 [Example 262, N-ethyl-2-(2-fluoro-3,4-dihydroxy-5-methoxyphenyl)-1-(3-methyloxetan-3-yl)-1H-benzo[d]imidazole-6-carboxamide]",≥ 7.00
14,"COc1cc(-c2nc3ccc(C(=O)NCC4(F)CC4)cc3n2C2(C)COC2)c(F)c(O)c1O [Example 263, 2-(2-fluoro-3,4-dihydroxy-5-methoxyphenyl)-N-[(1-fluorocyclopropyl)methyl]-1-(3-methyloxetan-3-yl)-1H-1,3-benzodiazole-6-carboxamide.]",≥ 7.00
15,"CCNC(=O)c1ccc2nc(-c3cc(OC)c(O)c(O)c3F)n(C34CC(C3)C4)c2c1 [Example 264, 1-(bicyclo[1.1.1]pentan-1-yl)-N-ethyl-2-(2-fluoro-3,4-dihydroxy-5-methoxyphenyl)-1H-benzo[d]imidazole-6-carboxamide]",≥ 7.00
16,"COc1cc(-c2nc3ccc(-c4cnn(C)c4)cc3n2C2(C)COC2)c(F)c(O)c1O [Example 265, 3-fluoro-6-methoxy-4-(6-(1-methyl-1H-pyrazol-4-yl)-1-(3-methyloxetan-3-yl)-1H-benzo[d]imidazol-2-yl)benzene-1,2-diol]",≥ 7.00
17,"COc1cc(-c2nc3ccc(-c4ccnn4C)cc3n2C2(C)COC2)c(F)c(O)c1O [Example 266, 3-fluoro-6-methoxy-4-(6-(1-methyl-1H-pyrazol-5-yl)-1-(3-methyloxetan-3-yl)-1H-benzo[d]imidazol-2-yl)benzene-1,2-diol]",5.00 to 6.00
18,"COc1cc(-c2nc3ccc(-c4ncccn4)cc3n2C2(C)COC2)c(F)c(O)c1O [Example 267, 3-fluoro-6-methoxy-4-(1-(3-methyloxetan-3-yl)-6-(pyrimidin-2-yl)-1H-benzo[d]imidazol-2-yl)benzene-1,2-diol]",≥ 7.00
19,"COc1cc(-c2nc3cc(C4CCC4)ccc3[nH]2)cc(O)c1O [Example 268, 5-(5-cyclobutyl-1H-benzo[d]imidazol-2-yl)-3-methoxybenzene-1,2-diol]",< 4.00
20,"COc1cc(-c2nc3ccc(-c4ccc(F)cn4)cc3n2C2(C)COC2)c(F)c(O)c1O [Example 269, 3-fluoro-4-(6-(5-fluoropyridin-2-yl)-1-(3-methyloxetan-3-yl)-1H-benzo[d]imidazol-2-yl)-6-methoxybenzene-1,2-diol]",≥ 7.00
21,"COc1cc(-c2nc3ccc(-c4ncc(F)cn4)cc3n2C2(C)COC2)c(F)c(O)c1O [Example 270, 3-fluoro-4-(6-(5-fluoropyrimidin-2-yl)-1-(3-methyloxetan-3-yl)-1H-benzo[d]imidazol-2-yl)-6-methoxybenzene-1,2-diol]",≥ 7.00
22,"COc1cc(-c2nc3cc(N4CCOC4=O)ccc3n2C2(C)COC2)c(F)c(O)c1O [Example 271, 3-(2-(2-fluoro-3,4-dihydroxy-5-methoxyphenyl)-1-(3-methyloxetan-3-yl)-1H-benzo[d]imidazol-5-yl)oxazolidin-2-one]",≥ 7.00
23,"COc1cc(-c2nc3cc(N4CCC4=O)ccc3n2C2(C)COC2)c(F)c(O)c1O [Example 272, 1-(2-(2-fluoro-3,4-dihydroxy-5-methoxyphenyl)-1-(3-methyloxetan-3-yl)-1H-benzo[d]imidazol-5-yl)azetidin-2-one]",6.00 to 7.00
24,"COc1cc(-c2nc3cc(N4CCN(C)CC4=O)ccc3n2C2(C)COC2)c(F)c(O)c1O [Example 273, 1-(2-(2-fluoro-3,4-dihydroxy-5-methoxyphenyl)-1-(3-methyloxetan-3-yl)-1H-benzo[d]imidazol-5-yl)-4-methylpiperazin-2-one]",6.00 to 7.00
